Data: patent US5770623A, “Argine antagonists for inhibition of systemic hypotension associated with nitric oxide production or endothelial derived relaxing factor” (Board of Regents, The University of Texas System, priority 1995, dated 1998)
Where two headings read alike, the source gives them in different places.

What was measured:
[1] = system: murine endothelial cells exposed to Gamma-Interferon and TNF (nitric oxide production); assay: Inhibition of nitrite production by MBEC exposed to IFN (100 U/ml) and TNF (500 U/ml); format: cell-based; details: for IC50: Mus musculus, Endothelial cell, 48 h, read-out: ED50% (effective dose that inhibited 50% of the nitrite production); for potency ranking as inhibitor of nitric oxide production: analogs of Table 5
Protocol: Endothelial cells--MBEC's were isolated from murine brain microvessels and cultured on gelatin-coated tissue culture dishes in DME/F12 media supplemented with 2% PPPHS, 5% FBS (Hyolone), 50 μg/ml ECGF (Biomed Tech), and 10 U/ml heparin (Sigma) as previously described (Belloni et al. 1989). The endothelial derivation of MBEC's was determined by the presence of a non-thrombogenic surface to platelets and immunofluorescent staining for Factor VIII related antigen. MBEC's were used between passage 6-9 for all experiments.
Nitrite Assay--MBE cells were cultured on gelatin-coated well plates (Corning) in 100 μl of culture medium and treated with cytokines at 3 days post-confluence. After 48 hours, nitrite production was determined by a colorimetric assay. […] All treatments were performed in triplicate and data presented as the mean value±standard deviation. […]
production by murine endothelial cells exposed to GammaInterferon (100
U/ml) and TNF (500 U/ml) in vitro.

lethal ET shock animal = assay: Reversal of lethal-dose endotoxin shock by N^G-aminoarginine; format: in vivo
Protocol: The reversal of ET shock (lethal dose) by N^G -aminoarginine (NAA) for 4 hrs. […] FIG. 26 depicts systemic arterial pressure (SAP) versus time (min). ET (2 mg/kg), a lethal dose, was infused over 60 min. and NAA administered at 97, 165, and 374 min. to maintain blood pressure. The animal was survived for 24 hours and then autopsied.

[2] = system: guinea pig pulmonary artery rings; assay: Relaxation of preconstricted guinea pig pulmonary artery rings; details: for inhibition of EDRF/NO synthesis: guinea pig pulmonary artery rings, 1 μM NE, ACh
[3] = system: mongrel dogs with TNF-induced hypotension; assay: TNF-induced hypotension in anesthetized dogs; format: in vivo, dog; details: dog, FIG. 25
Protocol: Recombinant human TNF specific activity 2×10^7 units/mg, was from the Niposn Chemical Corporation, Tokyo, Japan. TNF was administered at a dose of 10 mcg/kg in a volume of 10 ml of phosphate buffered saline containing 2 mgs/ml of dog albumin. […] Arginine was obtained from Sigma Chemical Company, St. Louis, Mo.
Four conditioned mongrel dogs, 2 males and 2 females, weighing 28 to 30 kgs, were studied. Care of the animals were in accordance with the recommendation of the American Association for Accreditation of Laboratory Animals [DHEW(DHHS) publication no. (NIH) 78-23, revised, 1978]. On the day of the experiment, the dogs were fasted overnight. They were anesthetized with phenobarbital (10 mg/kg). They were then intubated orally with a #10 fr. endotracheal tube and ventilated with a Harvard pump ventilator at a rate of 12 breaths per minute and a tidal volume of 15 ml/kg. An arterial line was percutaneously placed in the femoral artery on the day of the experiment.
Mean (electronic) and phasic systemic arterial pressures (SAP) were continuously recorded on a Hewlett-Packard recording system (model 7758B) using strain gauge manometers (Hewlett-Packard model 1290A) which were connected to the arterial line. Heart rate (HR) was determined from an EKG tracing and continuously recorded on the Hewlett-Packard recording system. Oxyhemoglobin saturation (SaO2) was obtained using a pulse oximeter (BIOX 111, Boulder, Colo.). continuous time-series records of SAP, HR, and SaO2 were obtained using a Lab Master analog-to-digital convertor (16 channel, 12 bit, 30 kHz; Scientific Solutions, Inc.) sampling at 55 Hz and storing the 6 sec averages on a magnetic disk.

[4] = system: systemic hypotension mediated by interleukin-1; assay: Interleukin-1 mediated systemic hypotension; format: in vivo; details: FIG. 27
L929 cells = assay: Cytolytic activity of rh-TNF against Actinomycin D-treated L929 cells; format: cell-based, murine; details: murine L929 cells, in vitro
Protocol: TNF bioactivity was measured by the cytotoxicity towards murine L929 cells, in vitro.

anesthetized guinea pig = assay: Pressor effect in the anesthetized guinea pig; format: in vivo; details: 1-10 mg/kg i.v. (L-NMA)
Excerpt: Points are mean changes in diastolic arterial pressure (±SEM; n=4-5). Control systolic and diastolic BP was 75±3 and 51±3 mm Hg, respectively.

[5] = molecular target: EMT6 enzyme system (NO formation from L-arginine) (Mus musculus, UniProt P29477); assay: Arginine-dependent nitrite synthesis by cytosol of stimulated EMT6 cells; format: biochemical, murine
Protocol: Thus EMT6 cytosolic preparations (i.e., cell-free solutions) were prepared and an enzyme activity was characterized which forms NO and citrulline from arginine. This reaction requires NADPH (FIG. 18 and 19) and other cofactors.
Incubation mixtures were 100 μl total volume containing: 40 μl cytosol (100,000×g supernatant), 2 mM L-arginine, 2 mM NADPH, 20 mM TRIS (pH 8.0) and a "cocktail" of protease inhibitors.
From kinetic studies an apparent Michaelis-Menton constant for L-arginine utilization by the enzyme was deduced. FIG. 20 is a Lineweaver-Burke plot for synthesis of nitrite from L-arginine by cytosol from stimulated EMT6 cells. The rate of nitrite formation was evaluated over a range of L-arginine (ARG) concentrations (from 0.03-2.0 mM) under conditions similar to that described for FIG. 18, except that incubates contained 50 μl cytosol in a total volume of 80 μl. Open and filled circles represent results obtained with each of two cytosol preparations. […] N^G -substituted arginine analogs were screened for precise quantitation of their ability to inhibit arginine-dependent NO formation by the EMT6 enzyme system.

rabbit aortic rings = assay: ACh-induced relaxation of isolated rabbit aortic rings; details: isolated rabbit aortic rings, FIG. 9b
Excerpt: FIG. 9b compares concentration-response relationships for the same set of mono- and disubstituted arginine analogs as FIG. 9a, plus an additional dimethyl analog with the two methyl groups on different guanidino nitrogens. The test is for inhibition of ACh-induced vasorelaxation in isolated rabbit aortic rings. The points plotted represent means±S.E. of the maximum responses to ACh observed in the presence of the indicated concentrations of analogs (n=4).
Guinea pig pulmonary artery (GP PA), rat and rabbit aorta (Ao), and dog coronary (CA) and femoral artery (FA) were precontracted with NE (1 μM) and relaxed with a single concentration of ACh. Concentration of ACh: GP PA 1 μM, rat Ao […], rabbit Ao 0.3, dog CA […] and […] 0.1 μM. […] The concentrations of L-citrulline (L-cit), D-arginine (D-arg) and L-arginine (L-arg) were all 0.5 mM. Bars are mean values±SEM (n=4-6).
FIG. 11 contains representative physiograph tracings which depict ACh-induced relaxation of NE-preconstricted rings prepared from rabbit aorta (upper panel) and human internal mammary artery (lower panel).

[6] = system: bovine aortic endothelial cells (BAEC); assay: A23187-stimulated nitrite release from bovine aortic endothelial cells; format: cell-based; details: 2-hr, L-arginine-free medium, FIG. 9a
Protocol: The % inhibition of relaxation is calculated from the maximum ACh-induced relaxation observed in the presence of the arginine analog relative to that in its absence. Points represent mean values±SEM (n=4-6). […] Another N^G substitution tested for inhibition of induced nitrite release had two methyl groups on one of the arginine guanidino nitrogens. Concentration-response relationships for inhibition of A23187-stimulated nitrite release by bovine aortic endothelial cells (BAEC) are shown in FIG. 9a for the N,N-disubstituted derivative in comparison with several monosubstituted derivatives. Nitrite production was measured as an indication of nitric oxide synthesis since nitric oxide spontaneously decays to nitrite. Nitrite production by BAEC in a 2-hr. period was assessed in an L-arginine-free medium alone or in the presence of the indicated concentration of arginine analogs. The points plotted represent means±S.E. of the percent inhibition of nitrite production observed in 3 individual BAEC culture wells. The key on FIG. 9a indicates the groups substituted on the guanidino nitrogens of L-arginine.
Points are mean values±SEM (n=3).

[7] = system: nitroglycerin-treated dogs; assay: Nitroglycerin-induced hypotension in dogs (Example 4); format: in vivo, dog; details: Table 1, Study 2: Nitroglycerin-treated (n = 3)
Protocol: Animals: Studies were carried out on 12 conditioned mongrel dogs (9 males and 3 females) weighing 22-32 kg (avg=25.3 kg). Animal care was in accordance with the recommendations of the American Association for Accreditation of Laboratory Animal Care, and met all standards prescribed by the Guide for the Care and Use of Laboratory Animals (Guide for the Care and Use of Laboratory Animals (1978) Dept. of Health, Education and Welfare, Washington, D.C. (Publ. No. 78-23). Animal protocols were approved by The University of Texas Animal Welfare Committee. The dogs were fasted overnight prior to the day of experimentation. They were anesthetized with sodium pentobarbital (25 mg/kg I.v.). Dogs were then endotracheally intubated and ventilated with a piston-driven respirator (Harvard instruments) using room air at a tidal volume of 20 ml/kg and at a rate of 10 to 12 breaths per minute, adjusted to achieve a normal arterial pH and pCO2 (Instrumentation Laboratories 1L13012 pH/Blood Gas Analyzer). Catheters were placed percutaneously into the femoral and pulmonary arteries; In the latter, a flow-directed thermal-dilation catheter was used (Abbott Critical Care Systems).
Physiologic measurements: Mean SAP and heart rate were continuously monitored (Parametron 7048 Monitoring System, Roche) and stored on a magnetic disk using an analog-to-digital converter (Scientific Solutions, Inc.). Cardiac output (CO) was determined as the mean of six measurements by thermal-dilution. Systemic vascular resistance was calculated as (SAP X80)/CO and expressed as […].
Protocol: After the blood pressure and heart rate stabilized, endotoxin (40 ug/kg, in 10 ml of phosphate-buffered saline (PBS), pH 7.4) was infused i.v. over 2 minutes. This dose of endotoxin typically induces severe and often lethal cardiovascular collapse in the dog. Blood pressure was monitored, and when either SAP fell below 60 mmHg or a stable nadir in systemic arterial pressure (SAP) was maintained for 10 minutes, L-NMA was administered (20 mg/kg in 5 ml of PBS i.v. over 1 min.). In most experiments, L-arginine (400 mg/kg in 20 mi PBS) was administered ten minutes later by i.v. infusion over 2 minutes. In control experiments, dogs without prior exposure to endotoxin received L-NMA alone. To simulate the hypotension observed in dogs receiving endotoxin, one group of dogs received a continuous i.v. infusion of nitroglycerin (2 mg/ml) at a rate adjusted to maintain the SAP at 60-70 mm Hg. Nitroglycerin-treated dogs then received L-NMA (20 mg/kg) and 20 minutes later L-arginine was administered […].
In an additional series of experiments, blood pressure was reduced to 65 mm Hg by continuous i.v. infusion of nitroglycerin, a hypotensive agent that forms NO by an L-arginine and NO synthetase-independent mechanism.

[8] = system: isolated guinea pig heart; assay: Histamine-induced nitrite release and coronary flow in isolated perfused guinea pig heart; details: histamine-elicited
Protocol: Histamine was administered as a rapid bolus injection into the aorta and net nitrite release during the subsequent 2.5 minutes was determined.

[9] = system: murine brain endothelial cells (MBEC); assay: Nitrite production by MBEC exposed to cytokines / immunomodulators (Griess assay); format: cell-based; details: IFN 100 U/ml, TNF 500 U/ml, IL-1 10 U/ml, endotoxin 1 μg/ml; 48 hours
[10] = murine endothelial cells, Gamma-Interferon (100 U/ml) and TNF (500 U/ml), in vitro

EMT6 enzyme system (NO formation from L-arginine), sequence (P29477 whole entry): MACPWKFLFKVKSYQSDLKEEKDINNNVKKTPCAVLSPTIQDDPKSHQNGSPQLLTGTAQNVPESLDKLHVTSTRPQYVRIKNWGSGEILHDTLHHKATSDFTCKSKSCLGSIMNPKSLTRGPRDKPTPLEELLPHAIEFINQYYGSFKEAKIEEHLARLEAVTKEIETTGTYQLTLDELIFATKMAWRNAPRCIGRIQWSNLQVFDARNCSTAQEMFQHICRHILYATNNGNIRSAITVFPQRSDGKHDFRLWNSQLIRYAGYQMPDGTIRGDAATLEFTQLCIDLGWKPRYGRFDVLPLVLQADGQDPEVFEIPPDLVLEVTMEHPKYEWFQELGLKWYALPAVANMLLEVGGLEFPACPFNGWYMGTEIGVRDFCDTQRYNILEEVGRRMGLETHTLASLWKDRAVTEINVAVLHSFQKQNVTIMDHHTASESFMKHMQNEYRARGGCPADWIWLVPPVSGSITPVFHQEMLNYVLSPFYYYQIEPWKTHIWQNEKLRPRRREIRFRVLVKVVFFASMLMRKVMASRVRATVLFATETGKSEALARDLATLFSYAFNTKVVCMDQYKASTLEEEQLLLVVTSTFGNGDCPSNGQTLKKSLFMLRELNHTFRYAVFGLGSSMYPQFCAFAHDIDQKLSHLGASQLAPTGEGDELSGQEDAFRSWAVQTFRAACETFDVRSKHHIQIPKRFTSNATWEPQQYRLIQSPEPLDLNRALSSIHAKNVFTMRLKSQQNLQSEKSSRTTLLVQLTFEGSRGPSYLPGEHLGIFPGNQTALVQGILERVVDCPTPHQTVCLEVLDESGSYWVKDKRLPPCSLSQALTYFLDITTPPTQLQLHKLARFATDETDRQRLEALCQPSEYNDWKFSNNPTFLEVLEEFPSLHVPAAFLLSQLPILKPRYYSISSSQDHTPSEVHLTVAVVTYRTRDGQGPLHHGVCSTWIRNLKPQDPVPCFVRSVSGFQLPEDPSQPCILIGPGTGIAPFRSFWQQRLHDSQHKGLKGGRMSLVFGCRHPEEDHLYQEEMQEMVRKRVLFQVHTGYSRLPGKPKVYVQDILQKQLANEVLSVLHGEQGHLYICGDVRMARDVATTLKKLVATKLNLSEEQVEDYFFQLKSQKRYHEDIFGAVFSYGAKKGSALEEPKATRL

With `N=C(NN)NCCC[C@H](N)C(=O)O` [Aminoarginine, L-N^G -aminoarginine] the IC50 [1] was 110 µM, the “potency ranking as inhibitor of nitric oxide production” value [1] was “most potent inhibitor of nitric oxide production measured thusfar” and the “potency ranking as inhibitor of nitric oxide production” value ([1]; listed as N^G -aminoarginine) was “most potent derivative tested”. For the same molecule, the survival (lethal ET shock animal; ET 2 mg/kg, multiple NAA doses, then autopsied) was 24 h, the “pathological changes at autopsy” value (lethal ET shock animal; liver, lungs, heart, brain, bowel or kidney) was “No pathological changes” and the “activity ranking in inhibition of ACh-induced relaxation” value ([2]; compounds tested thus far) was “greatest activity”. For the same molecule, the “inhibition of EDRF/NO synthesis” value [2] was “served as inhibitors of EDRF/NO synthesis”, the “effectiveness in reversing TNF hypotension vs NMMA” value [3] was “more effective than NMMA” and the “reversal of IL-1 mediated hypotension” value [4] was “reverse systemic hypotension”. For the same molecule, the “effect on cytolytic effect of TNF towards tumor cells” value (L929 cells) was “did not alter the cytolytic effect of TNF”.

For `CNC(=N)NCCC[C@@H](N)C(=O)O` [D-NMA, reference compound], the “inhibition of EDRF/NO synthesis” value [2] was “not an inhibitor of EDRF/NO synthesis”.

For `CCNC(=N)NCCC[C@H](N)C(=O)O` [L-N^G -ethylarginine (L-NEA), L-N^G -ethylarginine], the “effect on diastolic BP / pressor effect (words)” value (anesthetized guinea pig) was “sustained pressor effect”, the mode of inhibition ([5]; Lineweaver-Burke) was “competitive inhibitor” and the “fold less active than NMMA” value ([5]; compared with NMMA, FIG. 22) was “approximately 10 -fold”.

In the case of `CN=C(NC)NCCC[C@H](N)C(=O)O` [Me,Me'--], the “inhibition of ACh-induced vasorelaxation” value (rabbit aortic rings) is reported as “not a good inhibitor”.

`CN(C)C(=N)NCCC[C@H](N)C(=O)O` [Me,Me--] was tested, and the “inhibition of EDRF/NO synthesis” value [2] was “served as inhibitors of EDRF/NO synthesis”, the “inhibition of ACh-induced vasorelaxation” value (rabbit aortic rings) was “active inhibitor” and the “potency for inhibition of A23187-stimulated nitrite release” value [6] was “approximately equipotent to L-N^G -methylarginine”.

With `COC(=O)[C@H](N)CCCNC(=N)N[N+](=O)[O-]` [Nitro-D-Arginine methyl ester] the IC50 [1] was greater than 4500 µM.

`N=C(NCCC[C@@H](N)C(=O)O)N[N+](=O)[O-]` [Nitro-D-Arginine] was tested, and the IC50 [1, 10] was greater than 4500 µM.

`N=C(NCCC[C@H](N)C(=O)OCc1ccccc1)N[N+](=O)[O-]` [Nitro-L-Arginine benzyl ester] gave an IC50 [1, 10] greater than 1200 µM.

`COC(=O)[C@@H](N)CCCNC(=N)N[N+](=O)[O-]` [Nitro-L-Arginine methyl ester] gave an IC50 [1] of 1830 µM.

For `N=C(NCCC[C@H](N)C(=O)O)N[N+](=O)[O-]` [Nitro-L-Arginine, N^G -nitroarginine], the IC50 [1, 10] was 2120 µM and the “inhibition of EDRF/NO synthesis” value [2] was “served as inhibitors of EDRF/NO synthesis”.

In the case of `O=[N+]([O-])OCC(CO[N+](=O)[O-])O[N+](=O)[O-]` [Nitroglycerin], the “Cardiac Output” value [7] is reported as 2.72 ± 0.27 L/min, the “Heart Rate” value [7] is reported as 137.3 ± 5.0 beats/min and the Systemic Arterial Pressure [7] is reported as 64.7 ± 2.7 mmHg. The “Systemic Vascular Resistance” value [7] was 1924 ± 132 dynes-sec/cm^5.

In the case of `NCCc1c[nH]cn1` [histamine, reference compound], the “effect on coronary flow (vasodilation)” value [8] is reported as “dose-dependent increase in coronary flow”.

In the case of `CC(=O)N[C@H]1C(O)O[C@H](CO)[C@@H](O)[C@@H]1O[C@H](C)C(=O)N[C@@H](C)C(=O)N[C@H](CCC(=O)O)C(N)=O` (stereo partly shown) [muramyl dipeptide (MDP), muramyl dipeptide, reference compound], the “effect on nitrite production by MBEC” value [9] is reported as “Neither muramyl dipeptide (MDP) or Il-2 alone, or in combination with IFN effected nitrite production”.

B1: IFN: recombinant murine gamma-interferon (protein, UniProt P01580 23-155, looked up)
Interferon gamma: HGTVIESLESLNNYFNSSGIDVEEKSLFLDIWRNWQKDGDMKILQSQIISFYLRLFEVLKDNQAISNNISVIESHLITTFFSNSKAKKDAFMSIAKFEVNNPQVQRQAFNELIRVVHQLLPESSLRKRKRSRC
In the case of B1, the “effect on nitrite production by MBEC” value [9] is reported as “no effect”.
